The test system of assay [1] is Tetranychus urticae. The assay is described as follows: Laboratory test of mite control (Unesp, Jaboticabal). The class given is in vivo. To be noted: dose 30 g-mL/100 L, lab conditions; for Mite control (%) 1 DFA: 1 day following application; for Mite control (%) 2 DFA: 2 days following application; for Mite control (%) 3 DFA: 3 days following application; for Mite control (%) 4 DFA: 4 days following application; for Mite control (%) 7 DFA: 7 days following application. The text has this: Application of miticide propargite: application to control mites in lab conditions, performed by Unesp in Jaboticabal, SP. Quantitative (control) results are described in table 3. Assessments were made of the plant treated with miticide propargite against the witness plant (untreated).
Application of miticide abamectin: application to control mites in lab conditions, performed by Unesp in Jaboticabal, SP. Quantitative (control) results are described in Chart 4. Assessments were made of the plant treated with miticide abamectin against the witness plant (untreated).
Example 5: Laboratory Test Performed by Unesp in Jaboticabal, SP to Measure Mite Control, Specifically Control of Tetranychus Urticae with 4 Repetitions and 4 Treatments
The first (treatment 1) is a sample of the plant with no treatment (Witness). The second treatment is a sample treated with Folcysteine alone (treatment 2). The third treatment is a plant sample treated only with the agrotoxic of interest, miticide AI4 (based on propargite), identified as treatment 3, and the fourth treatment used a folcysteine-based biostimulant and an agrotoxic of interest, miticide AI4 (propargite-based), identified as treatment 4, applied under laboratory conditions. See the results in the following table:
Example 6: Laboratory Test Performed by Unesp in Jaboticabal, SP to Measure Mite Control, Specifically Control of Tetranychus Urticae with 4 Repetitions and 4 Treatments
The first (treatment 1) is a sample of the plant with no treatment (Witness). The second is a sample treated with Folcysteine alone (treatment 2). The third treatment is a plant sample treated only with the agrotoxic of interest, miticide AI5, and the fourth treatment uses a blend of folcysteine-based biostimulant and an agrotoxic of interest, miticide AI5 (abamectin-based), identified as treatment 4, applied under laboratory conditions.

Assay [2] has as its system corn. The class given is in vivo. The settings on record: dose 1.50 kg-l/ha.

For `C#CCOS(=O)OC1CCCCC1Oc1ccc(C(C)(C)C)cc1` (centres unmarked) [Propargite, propargite], in assay [1], the “Mite control (%) 1 DFA” value is recorded as 59%, the “Mite control (%) 2 DFA” value is reported as 63%, the “Mite control (%) 3 DFA” value is recorded as 70% and the “Mite control (%) 4 DFA” value came to 77%. The “Mite control (%) 7 DFA” value in assay [1] is 98%.
For `CP(=O)(O)CCC(N)C(=O)O.N` (centres unmarked) [ammonium glufosinate], in assay [2] (herbicide alone = 100), the “Productivity Index” value is listed as 100 and the “Weight of 1,000 grains Index” value is 100. Further, in assay [2] (spraying volume 300 l/ha), the Productivity was determined as 7.142 b kg/ha and the “Weight of 1,000 grains” value is reported as 25.89 a g.
Turning to abamectin, in assay [1], the “Mite control (%) 1 DFA” value amounted to 20%, the “Mite control (%) 2 DFA” value is listed as 20%, the “Mite control (%) 3 DFA” value is listed as 20% and the “Mite control (%) 4 DFA” value is reported as 45%. In addition, in assay [1], the “Mite control (%) 7 DFA” value worked out at 62%.

The values are drawn from patent US12185719B2, “Mixture of a folcysteine-based biostimulant and an agrotoxic substance of interest resulting in a quantitatively, qualitatively and time-related result-potentiating action as observed in an agricultural crop of a plant of interest” (priority 2017, dated 2025).
